Earlier results, collected in paper PMC7935732 (Targeted Oncology, 2021).

Columns and labels:
CDK 6 = details: compared with abemaciclib; cited from earlier work
CDK 4 = details: compared with abemaciclib; cited from earlier work

| Structure (SMILES) | Inhibitory potency for CDK 6 (CDK 6) | Inhibitory potency for CDK 4 (CDK 4) |
| --- | --- | --- |
| Cc1nc2c(F)cc(-c3nc(Nc4ccc(CN5CCNCC5)cn4)ncc3F)cc2n1C(C)C [M2] | comparable inhibitory potencies | comparable inhibitory potencies |
| CCN1CCN(Cc2ccc(Nc3ncc(F)c(-c4cc(F)c5nc(CO)n(C(C)C)c5c4)n3)nc2)CC1 [M20] | comparable inhibitory potencies | comparable inhibitory potencies |
